What was measured:
[1] = target: T1, MetQ (Streptococcus pneumoniae, UniProt A0A0H2ZPC6); experiment: tryptophan fluorescence spectroscopy titration; type: binding
T1 construct: gene SPD_0151; His6-MetQ (Sp_0149) without the predicted N-terminal signal peptide, ligand free, cloned from strain D39

[2] = target: T1, MetQ; experiment: isothermal titration calorimetry (also tryptophan fluorescence, KD […]); type: binding

T1 sequence (A0A0H2ZPC6 entry or part of it): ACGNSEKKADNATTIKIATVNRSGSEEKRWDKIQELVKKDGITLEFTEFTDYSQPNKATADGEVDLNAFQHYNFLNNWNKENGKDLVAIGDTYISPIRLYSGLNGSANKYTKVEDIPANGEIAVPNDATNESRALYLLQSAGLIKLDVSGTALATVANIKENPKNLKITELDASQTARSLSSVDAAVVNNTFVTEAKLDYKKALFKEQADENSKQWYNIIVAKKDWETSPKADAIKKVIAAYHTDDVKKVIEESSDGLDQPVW

Row | SMILES | Kd [1] [µM] | Kd [2] [µM]
1 | NC(CCS)C(=O)O (racemic) [DL-homocysteine] | 7 ± 0.26 | –
2 | CSCCC(C)(N)C(=O)O (racemic) [α-methyl-DL-methionine] | 30.1 ± 0.86 | –
3 | CSCC[C@@H](N)C(=O)O [D-methionine] | 27.4 ± 0.96 | –
4 | CSCC[C@H](N)C(=O)O [L-methionine] | – | 0.0266 ± 0.00128

From publication PMC3551916, “The Effects of Methionine Acquisition and Synthesis on Streptococcus Pneumoniae Growth and Virulence” (PLoS ONE, 2013)
